Measured values published in patent publication US9139523B2, “5-HT2B receptor antagonists” (Janssen Pharmaceutica, NV, priority 2010, dated 2015).

Molecular target: 5HT2B (Homo sapiens, UniProt P41595)
Experiment: 5-HT2B antagonism, FLIPR intracellular calcium in transfected CHO-K1 cells
Format: cell-based
Set-up: expressed in transfected cells; host or cells: CHO-K1 (ECACC)
Conditions: for IC50: CHO-K1 cells, response to 0.1 nM serotonin, Fluo-3 FLIPR; for Kb: modified Cheng Prusoff equation from IC50, read-out: 5-HT2B antagonism KB (apparent dissociation constant)
Method: CHO-K1 (ECACC) cells were stably transfected with human 5-HT2B receptor cDNA subcloned into pCDNA3.1 using the calcium phosphate method. Stably transfected cell lines were selected using G-418, and clonal cell lines were developed by limit dilution. Cell lines were cultured in Dulbecco's modified Eagle Medium (DMEM) containing 10% heat inactivated dialyzed foetal bovine serum (FBS), 1% penicillin-streptomycin, 1% L-glutamine and 1% non-essential amino acids.
Confluent monolayers plated into black 96 well plates with clear bottoms were loaded with 4 μM Fluo-3-AM for 90 min at 37° C. in Hanks balanced salt solution supplemented with 20 mM HEPES and 2.5 mM probenecid. After washing, the test compound was added to the cells and maximal fluorescence in response to 0.1 nM serotonin was recorded using a fluorometric imaging plate reader (FLIPR) to detect changes in intracellular calcium levels.
The maximal fluorescence recorded in the presence of the test compound was expressed as a percent of the maximal fluorescence response to the agonist serotonin (0.1 nM). […] The apparent dissociation constant (KB) was calculated using the modified Cheng Prusoff equation (KB=IC50/(1+(A/EC50A)), where A=concentration of serotonin, and EC50A=EC50 value of serotonin in this assay). (Porter et al. (1999), Br. J. Pharmacol., 128: 13-20)

Chain of 5HT2B (P41595 whole entry): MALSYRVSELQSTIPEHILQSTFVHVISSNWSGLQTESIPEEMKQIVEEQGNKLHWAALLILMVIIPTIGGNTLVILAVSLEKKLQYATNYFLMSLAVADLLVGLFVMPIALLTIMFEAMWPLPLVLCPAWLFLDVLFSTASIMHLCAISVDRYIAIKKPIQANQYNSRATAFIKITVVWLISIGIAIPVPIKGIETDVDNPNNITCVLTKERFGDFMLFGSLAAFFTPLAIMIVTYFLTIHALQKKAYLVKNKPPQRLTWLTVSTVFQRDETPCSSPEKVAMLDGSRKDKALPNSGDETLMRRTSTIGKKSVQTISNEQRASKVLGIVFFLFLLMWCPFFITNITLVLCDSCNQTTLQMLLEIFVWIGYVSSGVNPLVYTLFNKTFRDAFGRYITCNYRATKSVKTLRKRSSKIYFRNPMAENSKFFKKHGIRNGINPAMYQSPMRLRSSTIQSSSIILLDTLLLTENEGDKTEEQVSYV

| Structure (SMILES) | IC50 [nM] | Kb [nM] |
| --- | --- | --- |
| COc1cc(N)c(Cl)cc1C(=O)N[C@@H]1CCN(CCCOc2ccc(F)cc2)C[C@H]1F (racemic) [(±)-7, trans-4-amino-5-chloro-N-{3-fluoro-1-[3-(4-fluorophenoxy)-propyl]-piperidin-4-yl}-2-methoxybenzamide] | 60 | 20 |
| COc1cc(N)c(Cl)cc1C(=O)N[C@H]1CCN(CCCOc2ccc(F)cc2)C[C@H]1F (racemic) [(±)-12, cis-4-amino-5-chloro-N-{3-fluoro-1-[3-(4-fluorophenoxy)-propyl]-piperidin-4-yl}-2-methoxybenzamide] | 12 | 4.2 |
